Measured values taken from patent US7700559B2, “Gonadotropin releasing hormone analogues conjugates with steroid hormones” (Medical Research Council, priority 2003, dated 2010).
Where two headings read alike, the source gives them in different places. One block for each molecule: values may come before it. Non-standard residues stand in square brackets, D forms with d. Residues, ends and D or L forms follow the SMILES beside them. *: point of attachment. X1 = C[C@]12CC[C@H]3[C@@H](CCC4=CC(=O)CC[C@@]43C)[C@@H]1CC[C@@H]2C(=O)COC(=O)CCC(=O)*; dPhe(4-Cl) = N[C@H](Cc1ccc(Cl)cc1)C(=O)O; dPhe(4-F) = N[C@H](Cc1ccc(F)cc1)C(=O)O; d2Nal = N[C@H](Cc1ccc2ccccc2c1)C(=O)O; d3Pal = N[C@H](Cc1cccnc1)C(=O)O; ΔPro = O=C(O)[C@@H]1C=CCN1

Tests used:
male marmosets = experiment: In vivo male marmoset study, plasma testosterone after s.c. injection; parameters: species or system Callithrix jacchus; settings: 0.5 mg s.c.
Procedure: (§1) In Vivo Studies in the Male and Female Common Marmoset (Callithrix Jacchus)
Male marmoset studies: To determine duration of action at GnRH receptor, 0.5 mg GnRH antagonist-steroid conjugate was administered as subcutaneous bolus in 1 ml saline at two sites in six adult male marmosets. Testosterone concentrations were monitored by RIA. GnRH antagonist (0.5 mg) was administered as a subcutaneous bolus in 1 ml saline at two sites in three marmosets. Testosterone concentrations were monitored. One 300 μl blood sample was withdrawn on the day prior to GnRH antagonist injection and at 0 hours, 4 hours and 8 hours on the day of injection and on the following 3 days. Three further samples were taken during the subsequent week.

[1] = test system: cycling adult female marmosets; experiment: In vivo female marmoset study, inhibition of corpus luteum function; parameters: species or system Callithrix jacchus; settings: one animal; for duration of the luteal phase after treatment: mid-luteal phase
Procedure: as §1
Female marmoset studies: To identify the effective dose required to inhibit corpus luteum function, 1.0, 0.5 or 0.25 mg of GnRH antagonist-steroid conjugate was administered as subcutaneous bolus in 1 ml saline at two sites during mid-luteal phase. Progesterone concentrations were monitored by RIA. One 300 μl blood sample was withdrawn on the day prior to GnRH antagonist injection. Further blood samples of equal size were withdrawn at 0, 4 and 8 hours on day of injection and on the following 3 days. Blood samples were taken three times per week until the next ovulation.

[2] = target: progesterone binding globulin (PBG); experiment: Plasma protein binding assay, competition with [3H]progesterone in pregnant guinea pig plasma; settings: for IC50: read-out: IC50, inhibition of [3H]progesterone binding to PBG
Procedure: (§2) Plasma Protein Binding Assay
(§3) Plasma protein binding was determined by the competitive binding of steroid conjugates, in the presence of [1,2,6,7-^3H]progesterone or [^3H]cortisol, to pregnant guinea pig plasma or human pregnant serum respectively. 20 μl serum was diluted with 2 ml dextran-coated charcoal solution (0.25 g dextran T-70, 2.5 g charcoal decolorizing powder, activated acid washed [Merck Ltd., Lutterworth, Leicestershire] in 500 ml PBS) and incubated at room temperature. After 30 mins the suspension was centrifuged at 3000×g for 10 minutes, the supernatant was removed and the pellet was discarded. 100 μl of diluted serum was aliquoted into centrifuge tubes, followed by 1 pmol[^3H]steroid/100 μl PBS. 100 μl PBS (total binding) or 200 pmol/100 μl unlabelled competing ligand ([…]) was added to diluted serum in duplicate. Tubes were vortexed and incubated at room temperature for 1 hour, then for an additional 15 minutes on ice. A further 750 μl dextran-coated charcoal suspension was added and incubated for 10 minutes on ice, followed by centrifugation at 4° C. for 5 minutes. The supernatant fluid was counted.

[3] = target: T1, cortisol binding globulin (CBG) (Homo sapiens, UniProt P08185); experiment: Plasma protein binding assay, competition with [3H]cortisol in human pregnant serum; settings: data not shown, read-out: IC50, prevention of [3H]cortisol binding
T1 construct: from tissue; host or cells: human pregnant serum (charcoal-stripped, diluted)
T1 sequence (P08185 23-405): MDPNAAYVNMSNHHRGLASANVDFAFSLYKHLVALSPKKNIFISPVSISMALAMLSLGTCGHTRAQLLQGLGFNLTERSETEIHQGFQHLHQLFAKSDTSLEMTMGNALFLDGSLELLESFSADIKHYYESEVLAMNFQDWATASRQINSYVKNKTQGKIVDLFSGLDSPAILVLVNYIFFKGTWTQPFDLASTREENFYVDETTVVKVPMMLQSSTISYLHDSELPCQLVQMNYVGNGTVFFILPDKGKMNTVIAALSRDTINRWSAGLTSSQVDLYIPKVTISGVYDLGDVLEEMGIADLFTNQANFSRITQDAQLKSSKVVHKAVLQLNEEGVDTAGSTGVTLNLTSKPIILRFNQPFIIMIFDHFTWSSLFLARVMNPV
Procedure: as §2, §3

[4] = In vivo male rabbit study, disappearance of iodinated analogue from whole blood; settings: rabbit, in vivo, iv
Procedure: In Vivo Studies in the Male Rabbit
To determine biological half-life of GnRH agonist-progesterone conjugates, 0.5 ml saline containing approximately 10,000,000 cpm of iodinated [D-Ala^6]GnRH or [D-Lys^6]GnRH-progesterone conjugate was injected as an i.v. bolus into the ear vein of a male rabbit. Rabbits were sedated with 0.4 ml Aceprom 10 (Milborrow Animal Health, Republic of South Africa) injected intramuscularly 3-4 minutes before start of experiment. A repeat injection was carried out after 2 hours. 1 ml blood samples were collected in heparinized tubes from an indwelling cannula placed in a vein of the contralateral ear. Whole blood was counted directly to determine disappearance from circulation. All experiments were carried out in accordance with Republic of South Africa regulations.

Molecule: CC(=O)N[C@H](Cc1ccc2ccccc2c1)C(=O)N[C@H](Cc1ccc(Cl)cc1)C(=O)N[C@H](Cc1cccnc1)C(=O)N[C@@H](CO)C(=O)N[C@@H](CCCNC(=N)N)C(=O)N[C@H](CCCCN)C(=O)N[C@@H](CC(C)C)C(=O)N[C@@H](CCCNC(=N)N)C(=O)N1CCC[C@H]1C(=O)N[C@H](C)C(N)=O [antagonist A, [AcD-Nal^1,D-Cpa^2,D-Pal^3,Arg^5,D-Lys^6,D-Ala^10]GnRH, reference compound] (Ac-[d2Nal][dPhe(4-Cl)][d3Pal]SR[dK]LRP[dA]-NH2)
- effect on plasma testosterone concentrations (male marmosets): rapid decline in plasma testosterone concentrations
- time by which testosterone had increased again (male marmosets): ≤ 24 h
- time to which reduction in testosterone concentration was maintained post-injection (male marmosets): 8 h

Molecule: CC(=O)N[C@H](Cc1ccc2ccccc2c1)C(=O)N[C@H](Cc1ccc(Cl)cc1)C(=O)N[C@H](Cc1cccnc1)C(=O)N[C@@H](CO)C(=O)N[C@@H](CCCNC(=N)N)C(=O)N[C@H](CCCCNC(=O)CCC(=O)OCC(=O)[C@H]1CC[C@H]2[C@@H]3CCC4=CC(=O)CC[C@]4(C)[C@H]3CC[C@]12C)C(=O)N[C@@H](CC(C)C)C(=O)N[C@@H](CCCNC(=N)N)C(=O)N1CCC[C@H]1C(=O)N[C@H](C)C(N)=O [antagonist A-progesterone, AcD-Nal-D-Cpa-D-Pal-Ser-Arg-D-Lys-Leu-Arg-Pro-D-Ala-NH2 conjugated to 21-hydroxyprogesterone 21-succinate at the ε amine of D-Lys at position 6] (Ac-[d2Nal][dPhe(4-Cl)][d3Pal]SR[dK](X1)LRP[dA]-NH2)
- day by which testosterone had recovered (male marmosets): ≤ 6 days
- effect on plasma testosterone concentrations (male marmosets): rapidly decreased testosterone concentrations
- time to which reduction in testosterone concentration was maintained post-injection (male marmosets): at least 72 hours
- luteal regression and subsequent ovulation ([1]; 0.25 mg s.c.): full luteal regression and subsequent ovulation did not occur
- plasma progesterone concentrations ([1]; 0.25 mg s.c.): transient reduction in plasma progesterone concentrations
- duration of the luteal phase after treatment ([1]; 0.5 mg s.c., before 21.0±1.2 days): 11 days
- duration of the luteal phase after treatment ([1]; 1.0 mg s.c., before 24.8±2.2 days): 8 days
- IC50 ([2]; listed as antagonist A-progesterone conjugate): 1 µM
- IC50 ([2]; listed as antagonist peptide A-progesterone): 0.85 µM

Molecule: CC(=O)N1CC=C[C@H]1C(=O)N[C@H](Cc1ccc(F)cc1)C(=O)N[C@H](Cc1c[nH]c2ccccc12)C(=O)N[C@@H](CO)C(=O)N[C@@H](Cc1ccc(O)cc1)C(=O)N[C@H](CCCCNC(=O)CCC(=O)OCC(=O)[C@H]1CC[C@H]2[C@@H]3CCC4=CC(=O)CC[C@]4(C)[C@H]3CC[C@]12C)C(=O)N[C@@H](CC(C)C)C(=O)N[C@@H](CCCNC(=N)N)C(=O)N1CCC[C@H]1C(=O)NCC(N)=O [antagonist B-progesterone, Ac-ΔPro-D-Fpa-D-Trp-Ser-Tyr-D-Lys-Leu-Arg-Pro-Gly-NH2 conjugated to 21-hydroxyprogesterone 21-succinate at the ε amine of D-Lys at position 6] (Ac-[ΔPro][dPhe(4-F)][dW]SY[dK](X1)LRPG-NH2)
- IC50 ([2]; listed as antagonist B-progesterone conjugate): 0.53 µM
- IC50 ([2]; listed as antagonist peptide B-progesterone): 0.45 µM

- IC50 [3]: 0.0067 µM
Molecule: C[C@]12CCC(=O)C=C1CC[C@@H]1[C@@H]2[C@@H](O)C[C@@]2(C)[C@H]1CC[C@]2(O)C(=O)CO [cortisol, reference compound]
- inhibition of specific [3H]progesterone binding (specificity) [2]: failure of cortisol to inhibit specific [^3H]progesterone binding

Molecule: CC(=O)[C@H]1CC[C@H]2[C@@H]3CCC4=CC(=O)CC[C@]4(C)[C@H]3CC[C@]12C [progesterone, reference compound]
- IC50 [3]: 0.073 µM
- IC50 [2]: 0.096 µM

- second phase half-life (metabolism and renal clearance) [4]: 21 ± 3 min
Molecule: [D-Ala^6]GnRH [reference compound]
